Laboratory results taken from patent US7118895B2, “Process for producing aglycon by using diglycosidase and flavor-improved food containing the aglycon and converting agent to be used in the process” (Amano Enzyme Inc., priority 2000, dated 2006).

Experiments:
Crude diglycosidase = assay: Examination of substrate concentration in the conversion into isoflavone aglycons by diglycosidase using soybean materials; assay type: biochemical, Penicillium multicolor IAM7153;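 for Decomposition efficiency: ratio of each glycoside/aglycon within its isoflavone family: percent of the isoflavone family total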
Summary of the method: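 Soybean materials (roasted soy flour, soymilk, defatted soybean, concentrated soy protein) at 2–30% (w/v) in 20 mM acetate pH 4.0 were reacted with crude diglycosidase at 55° C with shaking; enzyme solution added was 1.88 AU/mL. Samples taken at 0, 1, 3 and 6 h were ethanol-extracted and analyzed by HPLC.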

[1] = system: Diglycosidase derived from P. multicolor; assay: Reactivity toward various isoflavone glycosides (HPLC); assay type: biochemical, Penicillium multicolor; set-up: glucoside / aglycon: unit not given here; settings: 55 °C, pH 4.0
Summary of the method: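 Enzymes at 0.75 AU/mL in pH 4.0 acetate buffer were reacted at 55° C with individual isoflavone glycosides (substrate stock 2 mM in methanol) in 20 mM acetate pH 4.0. Aglycone release followed at 0, 1, 3 and 6 h: ethanol-quenched, ODS HPLC with UV 260 nm, quantified against calibration curves.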

In the case of `O=c1c(-c2ccc(O)cc2)coc2cc(O[C@@H]3O[C@H](CO)[C@@H](O)[C@H](O)[C@H]3O)ccc12` [daidzin], the “Decomposition efficiency: ratio of each glycoside/aglycon within its isoflavone family” value (Crude diglycosidase; roasted soy flour, substrate concentration 2%, heat treatment of enzyme no, reaction time 0 h) is reported as 30.2%, the “Decomposition efficiency: ratio of each glycoside/aglycon within its isoflavone family” value (Crude diglycosidase; roasted soy flour, substrate concentration 2%, heat treatment of enzyme no, reaction time 1 h) is reported as “not detected” and the “Decomposition efficiency: ratio of each glycoside/aglycon within its isoflavone family” value (Crude diglycosidase; roasted soy flour, substrate concentration 2%, heat treatment of enzyme no, reaction time 3 h) is reported as “not detected”. For the same compound, the “Decomposition efficiency: ratio of each glycoside/aglycon within its isoflavone family” value (Crude diglycosidase; roasted soy flour, substrate concentration 2%, heat treatment of enzyme no, reaction time 6 h) was “not detected”, the “Decomposition efficiency: ratio of each glycoside/aglycon within its isoflavone family” value (Crude diglycosidase; roasted soy flour, substrate concentration 2%, heat treatment of enzyme yes, reaction time 6 h) was 46.6% and the “Decomposition efficiency: ratio of each glycoside/aglycon within its isoflavone family” value (Crude diglycosidase; roasted soy flour, substrate concentration 5%, heat treatment of enzyme no, reaction time 0 h) was 46.1%. For the same compound, the “Decomposition efficiency: ratio of each glycoside/aglycon within its isoflavone family” value (Crude diglycosidase; roasted soy flour, substrate concentration 5%, heat treatment of enzyme no, reaction time 1 h) was “not detected”, the “Decomposition efficiency: ratio of each glycoside/aglycon within its isoflavone family” value (Crude diglycosidase; roasted soy flour, substrate concentration 5%, heat treatment of enzyme no, reaction time 3 h) was “not detected” and the “Decomposition efficiency: ratio of each glycoside/aglycon within its isoflavone family” value (Crude diglycosidase; roasted soy flour, substrate concentration 5%, heat treatment of enzyme no, reaction time 6 h) was “not detected”. The “Decomposition efficiency: ratio of each glycoside/aglycon within its isoflavone family” value (Crude diglycosidase; roasted soy flour, substrate concentration 5%, heat treatment of enzyme yes, reaction time 6 h) was 46.1%, the “Decomposition efficiency: ratio of each glycoside/aglycon within its isoflavone family” value (Crude diglycosidase; roasted soy flour, substrate concentration 10%, heat treatment of enzyme no, reaction time 0 h) was 60.1% and the “Decomposition efficiency: ratio of each glycoside/aglycon within its isoflavone family” value (Crude diglycosidase; roasted soy flour, substrate concentration 10%, heat treatment of enzyme no, reaction time 1 h) was “not detected”. The “Decomposition efficiency: ratio of each glycoside/aglycon within its isoflavone family” value (Crude diglycosidase; roasted soy flour, substrate concentration 10%, heat treatment of enzyme no, reaction time 3 h) was “not detected”, the “Decomposition efficiency: ratio of each glycoside/aglycon within its isoflavone family” value (Crude diglycosidase; roasted soy flour, substrate concentration 10%, heat treatment of enzyme no, reaction time 6 h) was “not detected” and the “Decomposition efficiency: ratio of each glycoside/aglycon within its isoflavone family” value (Crude diglycosidase; roasted soy flour, substrate concentration 10%, heat treatment of enzyme yes, reaction time 6 h) was 47.5%. The “Decomposition efficiency: ratio of each glycoside/aglycon within its isoflavone family” value (Crude diglycosidase; roasted soy flour, substrate concentration 20%, heat treatment of enzyme no, reaction time 0 h) was 50.3%, the “Decomposition efficiency: ratio of each glycoside/aglycon within its isoflavone family” value (Crude diglycosidase; roasted soy flour, substrate concentration 20%, heat treatment of enzyme no, reaction time 1 h) was “not detected” and the “Decomposition efficiency: ratio of each glycoside/aglycon within its isoflavone family” value (Crude diglycosidase; roasted soy flour, substrate concentration 20%, heat treatment of enzyme no, reaction time 3 h) was “not detected”. The “Decomposition efficiency: ratio of each glycoside/aglycon within its isoflavone family” value (Crude diglycosidase; roasted soy flour, substrate concentration 20%, heat treatment of enzyme no, reaction time 6 h) was “not detected”, the “Decomposition efficiency: ratio of each glycoside/aglycon within its isoflavone family” value (Crude diglycosidase; roasted soy flour, substrate concentration 20%, heat treatment of enzyme yes, reaction time 6 h) was 48.6% and the “Decomposition efficiency: ratio of each glycoside/aglycon within its isoflavone family” value (Crude diglycosidase; roasted soy flour, substrate concentration 30%, heat treatment of enzyme no, reaction time 0 h) was 47.7%. The “Decomposition efficiency: ratio of each glycoside/aglycon within its isoflavone family” value (Crude diglycosidase; roasted soy flour, substrate concentration 30%, heat treatment of enzyme no, reaction time 1 h) was “not detected”, the “Decomposition efficiency: ratio of each glycoside/aglycon within its isoflavone family” value (Crude diglycosidase; roasted soy flour, substrate concentration 30%, heat treatment of enzyme no, reaction time 3 h) was “not detected” and the “Decomposition efficiency: ratio of each glycoside/aglycon within its isoflavone family” value (Crude diglycosidase; roasted soy flour, substrate concentration 30%, heat treatment of enzyme no, reaction time 6 h) was “not detected”. The “Decomposition efficiency: ratio of each glycoside/aglycon within its isoflavone family” value (Crude diglycosidase; roasted soy flour, substrate concentration 30%, heat treatment of enzyme yes, reaction time 6 h) was 49.0%, the “Decomposition efficiency: ratio of each glycoside/aglycon within its isoflavone family” value (Crude diglycosidase; soymilk, substrate concentration 2%, heat treatment of enzyme no, reaction time 0 h) was 53.5% and the “Decomposition efficiency: ratio of each glycoside/aglycon within its isoflavone family” value (Crude diglycosidase; soymilk, substrate concentration 2%, heat treatment of enzyme no, reaction time 1 h) was “not detected”. For the same compound, the “Decomposition efficiency: ratio of each glycoside/aglycon within its isoflavone family” value (Crude diglycosidase; soymilk, substrate concentration 2%, heat treatment of enzyme no, reaction time 3 h) was “not detected”, the “Decomposition efficiency: ratio of each glycoside/aglycon within its isoflavone family” value (Crude diglycosidase; soymilk, substrate concentration 2%, heat treatment of enzyme no, reaction time 6 h) was “not detected” and the “Decomposition efficiency: ratio of each glycoside/aglycon within its isoflavone family” value (Crude diglycosidase; soymilk, substrate concentration 2%, heat treatment of enzyme yes, reaction time 6 h) was 39.8%. For the same compound, the “Decomposition efficiency: ratio of each glycoside/aglycon within its isoflavone family” value (Crude diglycosidase; soymilk, substrate concentration 5%, heat treatment of enzyme no, reaction time 0 h) was 34.2%, the “Decomposition efficiency: ratio of each glycoside/aglycon within its isoflavone family” value (Crude diglycosidase; soymilk, substrate concentration 5%, heat treatment of enzyme no, reaction time 1 h) was “not detected” and the “Decomposition efficiency: ratio of each glycoside/aglycon within its isoflavone family” value (Crude diglycosidase; soymilk, substrate concentration 5%, heat treatment of enzyme no, reaction time 3 h) was “not detected”. The “Decomposition efficiency: ratio of each glycoside/aglycon within its isoflavone family” value (Crude diglycosidase; soymilk, substrate concentration 5%, heat treatment of enzyme no, reaction time 6 h) was “not detected”, the “Decomposition efficiency: ratio of each glycoside/aglycon within its isoflavone family” value (Crude diglycosidase; soymilk, substrate concentration 5%, heat treatment of enzyme yes, reaction time 6 h) was 40.5% and the “Decomposition efficiency: ratio of each glycoside/aglycon within its isoflavone family” value (Crude diglycosidase; soymilk, substrate concentration 10%, heat treatment of enzyme no, reaction time 0 h) was 34.6%. The “Decomposition efficiency: ratio of each glycoside/aglycon within its isoflavone family” value (Crude diglycosidase; soymilk, substrate concentration 10%, heat treatment of enzyme no, reaction time 1 h) was “not detected”, the “Decomposition efficiency: ratio of each glycoside/aglycon within its isoflavone family” value (Crude diglycosidase; soymilk, substrate concentration 10%, heat treatment of enzyme no, reaction time 3 h) was “not detected” and the “Decomposition efficiency: ratio of each glycoside/aglycon within its isoflavone family” value (Crude diglycosidase; soymilk, substrate concentration 10%, heat treatment of enzyme no, reaction time 6 h) was “not detected”. The “Decomposition efficiency: ratio of each glycoside/aglycon within its isoflavone family” value (Crude diglycosidase; soymilk, substrate concentration 10%, heat treatment of enzyme yes, reaction time 6 h) was 39.4%, the “Decomposition efficiency: ratio of each glycoside/aglycon within its isoflavone family” value (Crude diglycosidase; soymilk, substrate concentration 20%, heat treatment of enzyme no, reaction time 0 h) was 34.1% and the “Decomposition efficiency: ratio of each glycoside/aglycon within its isoflavone family” value (Crude diglycosidase; soymilk, substrate concentration 20%, heat treatment of enzyme no, reaction time 1 h) was “not detected”. The “Decomposition efficiency: ratio of each glycoside/aglycon within its isoflavone family” value (Crude diglycosidase; soymilk, substrate concentration 20%, heat treatment of enzyme no, reaction time 3 h) was “not detected”, the “Decomposition efficiency: ratio of each glycoside/aglycon within its isoflavone family” value (Crude diglycosidase; soymilk, substrate concentration 20%, heat treatment of enzyme no, reaction time 6 h) was “not detected” and the “Decomposition efficiency: ratio of each glycoside/aglycon within its isoflavone family” value (Crude diglycosidase; soymilk, substrate concentration 20%, heat treatment of enzyme yes, reaction time 6 h) was 39.8%. For the same compound, the “Decomposition efficiency: ratio of each glycoside/aglycon within its isoflavone family” value (Crude diglycosidase; soymilk, substrate concentration 30%, heat treatment of enzyme no, reaction time 0 h) was 34.9%, the “Decomposition efficiency: ratio of each glycoside/aglycon within its isoflavone family” value (Crude diglycosidase; soymilk, substrate concentration 30%, heat treatment of enzyme no, reaction time 1 h) was “not detected” and the “Decomposition efficiency: ratio of each glycoside/aglycon within its isoflavone family” value (Crude diglycosidase; soymilk, substrate concentration 30%, heat treatment of enzyme no, reaction time 3 h) was “not detected”. For the same compound, the “Decomposition efficiency: ratio of each glycoside/aglycon within its isoflavone family” value (Crude diglycosidase; soymilk, substrate concentration 30%, heat treatment of enzyme no, reaction time 6 h) was “not detected”, the “Decomposition efficiency: ratio of each glycoside/aglycon within its isoflavone family” value (Crude diglycosidase; soymilk, substrate concentration 30%, heat treatment of enzyme yes, reaction time 6 h) was 40.0% and the “Decomposition efficiency of daidzin family in defatted soybean” value (Crude diglycosidase; substrate concentration 2%, heat treatment of enzyme no, reaction time 0 h) was 42.3. For the same compound, the “Decomposition efficiency of daidzin family in defatted soybean” value (Crude diglycosidase; substrate concentration 2%, heat treatment of enzyme no, reaction time 1 h) was “not detected”, the “Decomposition efficiency of daidzin family in defatted soybean” value (Crude diglycosidase; substrate concentration 2%, heat treatment of enzyme no, reaction time 3 h) was “not detected” and the “Decomposition efficiency of daidzin family in defatted soybean” value (Crude diglycosidase; substrate concentration 2%, heat treatment of enzyme no, reaction time 6 h) was “not detected”. The “Decomposition efficiency of daidzin family in defatted soybean” value (Crude diglycosidase; substrate concentration 2%, heat treatment of enzyme yes, reaction time 6 h) was 43.7, the “Decomposition efficiency of daidzin family in defatted soybean” value (Crude diglycosidase; substrate concentration 5%, heat treatment of enzyme no, reaction time 0 h) was 44.0 and the “Decomposition efficiency of daidzin family in defatted soybean” value (Crude diglycosidase; substrate concentration 5%, heat treatment of enzyme no, reaction time 1 h) was “not detected”. The “Decomposition efficiency of daidzin family in defatted soybean” value (Crude diglycosidase; substrate concentration 5%, heat treatment of enzyme no, reaction time 3 h) was “not detected”, the “Decomposition efficiency of daidzin family in defatted soybean” value (Crude diglycosidase; substrate concentration 5%, heat treatment of enzyme no, reaction time 6 h) was “not detected” and the “Decomposition efficiency of daidzin family in defatted soybean” value (Crude diglycosidase; substrate concentration 5%, heat treatment of enzyme yes, reaction time 6 h) was 45.8. For the same compound, the “Decomposition efficiency of daidzin family in defatted soybean” value (Crude diglycosidase; substrate concentration 10%, heat treatment of enzyme no, reaction time 0 h) was 45.6, the “Decomposition efficiency of daidzin family in defatted soybean” value (Crude diglycosidase; substrate concentration 10%, heat treatment of enzyme no, reaction time 1 h) was “not detected” and the “Decomposition efficiency of daidzin family in defatted soybean” value (Crude diglycosidase; substrate concentration 10%, heat treatment of enzyme no, reaction time 3 h) was “not detected”. The “Decomposition efficiency of daidzin family in defatted soybean” value (Crude diglycosidase; substrate concentration 10%, heat treatment of enzyme no, reaction time 6 h) was “not detected”, the “Decomposition efficiency of daidzin family in defatted soybean” value (Crude diglycosidase; substrate concentration 10%, heat treatment of enzyme yes, reaction time 6 h) was 47.5 and the aglycon ([1]; Reaction time 0 h) was 0.9. The glucoside ([1]; Reaction time 0 h) was 99.1, the aglycon ([1]; Reaction time 1 h) was 70.1 and the glucoside ([1]; Reaction time 1 h) was 29.9. For the same compound, the aglycon ([1]; Reaction time 3 h) was 81.8, the glucoside ([1]; Reaction time 3 h) was 18.2 and the aglycon ([1]; Reaction time 6 h) was 88.5. For the same compound, the glucoside ([1]; Reaction time 6 h) was 11.5.
